Reference: PMC7982406, “Proteinase-Mediated Macrophage Signaling in Psoriatic Arthritis” (Frontiers in Immunology, 2021)
Each block holds one compound with its values, some of them ahead of it. Where a SMILES comes first, the peptide text is derived from it. [ ]: non-standard residue; d: D form. The star is where a group is joined. AMC = Cc1cc(=O)oc2cc(N*)ccc12

Legend:
[1] = molecular target: proteinase-activated receptor 2 (human (endogenous in HEK-293, THP-1 and primary monocytes/macrophages)) (UniProt P55085)
[2] = molecular target: T1, PAR2 (proteinase-activated receptor 2) (Homo sapiens, UniProt P55085); assay: calcium signaling (Fluo-4 AM), HEK-293 cells; assay type: cell-based; conditions: antagonist; pre-treatment, then 0.15 µM 2fLI as agonist; 37 °C
T1 construct: gene F2RL1; endogenous full-length receptor in HEK-293 cells; no response to 2fLI in CRISPR PAR2-knockout HEK-293
T1 sequence (P55085 26-397): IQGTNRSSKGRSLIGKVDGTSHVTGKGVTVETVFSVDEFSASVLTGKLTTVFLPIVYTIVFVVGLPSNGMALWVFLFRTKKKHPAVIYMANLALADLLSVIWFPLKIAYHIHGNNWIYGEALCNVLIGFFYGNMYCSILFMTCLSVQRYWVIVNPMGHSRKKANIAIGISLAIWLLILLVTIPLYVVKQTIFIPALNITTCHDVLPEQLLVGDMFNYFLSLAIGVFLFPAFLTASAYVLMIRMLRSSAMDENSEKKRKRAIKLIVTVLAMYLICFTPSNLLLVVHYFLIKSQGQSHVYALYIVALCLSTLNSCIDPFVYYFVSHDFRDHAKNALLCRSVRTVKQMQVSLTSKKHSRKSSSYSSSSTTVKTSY

Tryptase-6 (PRSS33) = molecular target: T2, Tryptase-6 (PRSS33) (Homo sapiens, UniProt Q8NF86); assay: fluorogenic cleavage, antibody pull-down from synovial fluid; assay type: biochemical; conditions: 37 °C; ex 380 nm, em 460 nm; enzyme captured by plate-immobilized antibody
T2 construct: native active enzyme (~25 kDa) captured by anti-tryptase-6 antibody from patient synovial fluid
T2 sequence (Q8NF86 37-280): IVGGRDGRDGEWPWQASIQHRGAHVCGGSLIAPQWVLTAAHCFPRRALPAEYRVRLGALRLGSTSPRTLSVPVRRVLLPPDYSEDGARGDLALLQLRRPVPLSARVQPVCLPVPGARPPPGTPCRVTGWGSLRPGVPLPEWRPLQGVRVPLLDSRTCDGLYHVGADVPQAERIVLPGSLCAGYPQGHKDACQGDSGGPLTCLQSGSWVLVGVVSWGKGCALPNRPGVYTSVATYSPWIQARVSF

calcium signaling (Fluo-4 AM) in HEK-293 cells, concentration-effect curve of 2fLI, EC50 [1]: 140 nM
Compound: 2-furoyl-LIGRLO-NH2 (peptide)

IC50 [2]: 2.1 nM
Compound: CC(C)(C)c1cc(-c2ccc(F)cc2)nn2cc(C(=O)N3CCNC(=O)C3(C)C)nc12 [I-191]

Compound: Cc1cc(=O)oc2cc(NC(=O)[C@H](CCCCN)NC(=O)[C@H](CC(C)C)NC(=O)[C@H](N)C(C)C)ccc12 [VLK-AMC] (H-[dV]-Leu-Lys-{AMC})
fluorogenic cleavage, antibody pull-down from synovial fluid (Tryptase-6 (PRSS33)): Tryptase-6 activity increased when both substrates were added
